Assay results reported in PubChem BioAssay (NCI).
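48-hour exposure; five concentrations; linearly interpolated endpoints. GI50 is the concentration that inhibits growth by half. TGI is the concentration that stops growth completely.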

Experiments:
Assay in all cases: NCI anticancer screen, dose series, 48 h
SNB-19 CNS = tested on: SNB-19 CNS
MDA-MB-435 = tested on: MDA-MB-435
MOLT-4 leukemia = tested on: MOLT-4 leukemia
KM12 colon = tested on: KM12 colon
SK-MEL-28 melanoma = tested on: SK-MEL-28 melanoma
EKVX NSCLC = tested on: EKVX NSCLC
CCRF-CEM leukemia = tested on: CCRF-CEM leukemia
SK-MEL-2 melanoma = tested on: SK-MEL-2 melanoma
HOP-62 NSCLC = tested on: HOP-62 NSCLC
SF-268 CNS = tested on: SF-268 CNS
NCI-H23 lung = tested on: NCI-H23 lung
HT29 colon = tested on: HT29 colon
HL-60(TB) leukemia = tested on: HL-60(TB) leukemia
UACC-62 melanoma = tested on: UACC-62 melanoma
NCI-H460 lung = tested on: NCI-H460 lung
NCI-H226 lung = tested on: NCI-H226 lung
SNB-75 CNS = tested on: SNB-75 CNS
BT-549 breast = tested on: BT-549 breast
OVCAR-5 ovarian = tested on: OVCAR-5 ovarian
SW-620 colon = tested on: SW-620 colon
NCI/ADR-RES ovarian = tested on: NCI/ADR-RES ovarian
COLO 205 colon = tested on: COLO 205 colon
A549 NSCLC = tested on: A549 NSCLC
RXF 393 renal = tested on: RXF 393 renal
OVCAR-3 ovarian = tested on: OVCAR-3 ovarian
MDA-MB-231 breast = tested on: MDA-MB-231 breast
786-0 renal = tested on: 786-0 renal
CAKI-1 renal = tested on: CAKI-1 renal

COc1ccc(C(=O)NCCNc2nccc(-c3c(-c4ccc(F)cc4)nc4sccn34)n2)cc1
GI50 (SNB-19 CNS): 10.3 µM | TGI (SNB-19 CNS): > 100 µM | GI50 (MDA-MB-435): 3.1 µM | TGI (MDA-MB-435): 22.7 µM | GI50 (MOLT-4 leukemia): 6.97 µM | TGI (MOLT-4 leukemia): 57.8 µM | GI50 (KM12 colon): 2.99 µM | TGI (KM12 colon): 22.4 µM | GI50 (SK-MEL-28 melanoma): 12.8 µM | TGI (SK-MEL-28 melanoma): > 100 µM | GI50 (EKVX NSCLC): 5.03 µM | TGI (EKVX NSCLC): 73.9 µM | GI50 (CCRF-CEM leukemia): 4.75 µM | TGI (CCRF-CEM leukemia): > 100 µM | GI50 (SK-MEL-2 melanoma): 6.23 µM | TGI (SK-MEL-2 melanoma): 30.4 µM | GI50 (HOP-62 NSCLC): 12.8 µM | TGI (HOP-62 NSCLC): > 100 µM | GI50 (SF-268 CNS): 2.61 µM | TGI (SF-268 CNS): 33.5 µM | GI50 (NCI-H23 lung): 8.95 µM | TGI (NCI-H23 lung): > 100 µM | GI50 (HT29 colon): 2.5 µM | TGI (HT29 colon): > 100 µM | GI50 (HL-60(TB) leukemia): 13.6 µM | TGI (HL-60(TB) leukemia): 47.8 µM | GI50 (UACC-62 melanoma): 4.03 µM | TGI (UACC-62 melanoma): 28.4 µM | GI50 (NCI-H460 lung): 3.55 µM | TGI (NCI-H460 lung): > 100 µM | GI50 (NCI-H226 lung): 6 µM | TGI (NCI-H226 lung): 69.1 µM | GI50 (SNB-75 CNS): 2.97 µM | TGI (SNB-75 CNS): 37.2 µM | GI50 (BT-549 breast): 7.95 µM | TGI (BT-549 breast): 31.2 µM | GI50 (OVCAR-5 ovarian): 39 µM | TGI (OVCAR-5 ovarian): > 100 µM | GI50 (SW-620 colon): 7.22 µM | TGI (SW-620 colon): > 100 µM | GI50 (NCI/ADR-RES ovarian): 7.62 µM | TGI (NCI/ADR-RES ovarian): > 100 µM | GI50 (COLO 205 colon): 3.01 µM | TGI (COLO 205 colon): 22.8 µM | GI50 (A549 NSCLC): 3.89 µM | TGI (A549 NSCLC): > 100 µM | GI50 (RXF 393 renal): 4.05 µM | TGI (RXF 393 renal): 39.4 µM | GI50 (OVCAR-3 ovarian): 1.24 µM | TGI (OVCAR-3 ovarian): 19.9 µM | GI50 (MDA-MB-231 breast): 24.8 µM | TGI (MDA-MB-231 breast): > 100 µM | GI50 (786-0 renal): 8.04 µM | TGI (786-0 renal): > 100 µM | GI50 (CAKI-1 renal): 2.27 µM
